Assay results reported in DBAASP.
In brackets after ≈: the same amount, converted by molar mass. Several values for one entry are separate records, joined by “and”; a condition that tells them apart may be missing. Equal values may be shown once.

Columns and labels:
Assay in all cases: ≥ marks a high value that may be exact or a test limit, other limits are often not marked, values filed in µg/mL are converted to µM
Escherichia coli D31 = test system: Escherichia coli D31
[1] = test system: Listeria fleischmannii DSM 24998
Listeria grayi DSM 20601 = test system: Listeria grayi DSM 20601
[2] = test system: Listeria monocytogenes DSM 20600
[3] = test system: Micrococcus luteus DSM 20030
[4] = test system: Pseudomonas aeruginosa PAK
Staphylococcus aureus = test system: Staphylococcus aureus
[5] = test system: Streptococcus gordonii Challis DL1
[6] = test system: Streptococcus mitis ATCC 903
[7] = test system: Streptococcus mutans UA159
[8] = test system: Streptococcus sanguinis NY101
Candida albicans 820 = test system: Candida albicans 820
Escherichia coli ML-35p = test system: Escherichia coli ML-35p
[9] = test system: Listeria monocytogenes EGD
[10] = test system: Staphylococcus aureus ATCC 33591
[11] = test system: Escherichia coli DH5alpha
[12] = test system: Pseudomonas aeruginosa NBRC 13275
[13] = test system: Staphylococcus aureus NBRC 13276

CC[C@H](C)[C@H](N)C(=O)N[C@@H](Cc1ccccc1)C(=O)N[C@@H](CCCCN)C(=O)N[C@@H](C)C(=O)N[C@H](C(=O)N[C@@H](Cc1c[nH]c2ccccc12)C(=O)N[C@@H](CO)C(=O)NCC(=O)N[C@H](C(=O)N[C@@H](CCCCN)C(=O)N[C@@H](CO)C(=O)N[C@@H](CC(C)C)C(=O)N[C@@H](Cc1ccccc1)C(=O)O)[C@@H](C)CC)[C@@H](C)CC [IFKAIWSGIKSLF]
MIC (Escherichia coli D31): 15 µM (≈ 22.6 µg/mL) | MIC [1]: 2 µM (≈ 3.02 µg/mL) | MIC (Listeria grayi DSM 20601): 2 µM (≈ 3.02 µg/mL) | MIC [2]: 2 µM (≈ 3.02 µg/mL) | MIC [3]: 2 µM (≈ 3.02 µg/mL)

CC[C@H](C)[C@H](NC(=O)CNC(=O)CNC(=O)CNC(=O)[C@H](Cc1ccccc1)NC(=O)[C@H](CCCN=C(N)N)NC(=O)[C@H](Cc1cnc[nH]1)NC(=O)[C@@H](NC(=O)[C@H](Cc1ccccc1)NC(=O)[C@H](Cc1cnc[nH]1)NC(=O)[C@H](CCCCN)NC(=O)[C@@H](NC(=O)[C@@H](N)Cc1ccccc1)[C@@H](C)CC)[C@@H](C)CC)C(=O)N[C@@H](CCCCN)C(=O)N[C@@H](CCC(N)=O)C(=O)N[C@@H](CC(C)C)C(=O)N[C@@H](CC(C)C)C(=O)N[C@@H](Cc1cnc[nH]1)C(=O)N[C@@H](Cc1ccccc1)C(=O)N[C@@H](Cc1ccccc1)C(=O)N[C@@H](CCC(N)=O)C(=O)N[C@@H](CCCN=C(N)N)C(=O)N[C@@H](Cc1ccccc1)C(N)=O [FIKHFIHRFGGGIKQLLHFFQRF]
MIC [4]: ≥ 43.5 µM | MIC (Staphylococcus aureus): 21.7 µM (≈ 62.5 µg/mL) | MIC [5]: 11.1 µM (≈ 32 µg/mL) | MIC [6]: 5.57 µM (≈ 16 µg/mL) | MIC [7]: 2.78 µM (≈ 8 µg/mL) | MIC [8]: 11.1 µM (≈ 32 µg/mL)

CC[C@H](C)[C@@H]1NC(=O)[C@H](CC(N)=O)NC(=O)[C@@H]2CSSC[C@@H]3NC(=O)[C@H](CCCN=C(N)N)NC(=O)[C@@H](NC(=O)[C@@H](NC(=O)[C@@H](N)CCCN=C(N)N)[C@@H](C)O)CSSC[C@@H](C(=O)N[C@@H](CCCN=C(N)N)C(=O)O)NC(=O)[C@H](CSSC[C@H](NC(=O)[C@H](CCCN=C(N)N)NC(=O)CNC(=O)[C@H](CC(C)C)NC(=O)[C@H](CCCN=C(N)N)NC3=O)C(=O)N[C@@H](CO)C(=O)N[C@@H](CCCN=C(N)N)C(=O)N[C@@H](CCCN=C(N)N)C(=O)N[C@@H](CCC(=O)O)C(=O)N[C@@H](CO)C(=O)N[C@@H](Cc3ccc(O)cc3)C(=O)N[C@@H](CO)C(=O)NCC(=O)N[C@@H](CO)C(=O)N2)NC(=O)[C@H](CC(C)C)NC(=O)[C@H](CO)NC(=O)[C@H](Cc2ccc(O)cc2)NC(=O)[C@H]([C@@H](C)CC)NC(=O)[C@H](CCCN=C(N)N)NC(=O)CNC(=O)[C@H](CC(N)=O)NC1=O [RTCRCRLGRCSRRESYSGSCNINGRIYSLCCR]
MIC (Candida albicans 820): 2.6 µM and 3.8 µM | MIC (Escherichia coli ML-35p): 2 µM and 3.1 µM | MIC [9]: 1.2 µM and 1.9 µM | MIC [10]: 4.5 µM and 7.8 µM

CC[C@H](C)[C@H](NC(=O)CNC(C)=O)C(=O)NCC(=O)N[C@@H](CCCCN)C(=O)N[C@@H](Cc1ccccc1)C(=O)N[C@@H](CC(C)C)C(=O)N[C@@H](Cc1cnc[nH]1)C(=O)N[C@@H](CO)C(=O)N[C@@H](C)C(=O)N[C@@H](CCCCN)C(=O)N[C@@H](CCCCN)C(=O)N[C@@H](Cc1ccccc1)C(=O)NCC(=O)N[C@@H](CCCCN)C(=O)N[C@@H](C)C(=O)N[C@@H](Cc1ccccc1)C(=O)N[C@H](C(=O)NCC(=O)N[C@@H](CCC(=O)O)C(=O)N[C@H](C(=O)N[C@@H](CCSC)C(=O)N[C@@H](CC(N)=O)C(=O)N[C@@H](CO)C(N)=O)[C@@H](C)CC)C(C)C [GIGKFLHSAKKFGKAFVGEIMNS]
MIC [11]: ≥ 50 µM | MIC [12]: 25 µM (≈ 62.7 µg/mL) | MIC [13]: ≥ 200 µM
